Biological target: T1, KCC2 (Homo sapiens, UniProt Q9H2X9)
T1 construct: expressed in transfected cells; host or cells: HEK-293 (ATCC CRL-1573)
T1 sequence (Q9H2X9 1-1116 isoform Q9H2X9-2): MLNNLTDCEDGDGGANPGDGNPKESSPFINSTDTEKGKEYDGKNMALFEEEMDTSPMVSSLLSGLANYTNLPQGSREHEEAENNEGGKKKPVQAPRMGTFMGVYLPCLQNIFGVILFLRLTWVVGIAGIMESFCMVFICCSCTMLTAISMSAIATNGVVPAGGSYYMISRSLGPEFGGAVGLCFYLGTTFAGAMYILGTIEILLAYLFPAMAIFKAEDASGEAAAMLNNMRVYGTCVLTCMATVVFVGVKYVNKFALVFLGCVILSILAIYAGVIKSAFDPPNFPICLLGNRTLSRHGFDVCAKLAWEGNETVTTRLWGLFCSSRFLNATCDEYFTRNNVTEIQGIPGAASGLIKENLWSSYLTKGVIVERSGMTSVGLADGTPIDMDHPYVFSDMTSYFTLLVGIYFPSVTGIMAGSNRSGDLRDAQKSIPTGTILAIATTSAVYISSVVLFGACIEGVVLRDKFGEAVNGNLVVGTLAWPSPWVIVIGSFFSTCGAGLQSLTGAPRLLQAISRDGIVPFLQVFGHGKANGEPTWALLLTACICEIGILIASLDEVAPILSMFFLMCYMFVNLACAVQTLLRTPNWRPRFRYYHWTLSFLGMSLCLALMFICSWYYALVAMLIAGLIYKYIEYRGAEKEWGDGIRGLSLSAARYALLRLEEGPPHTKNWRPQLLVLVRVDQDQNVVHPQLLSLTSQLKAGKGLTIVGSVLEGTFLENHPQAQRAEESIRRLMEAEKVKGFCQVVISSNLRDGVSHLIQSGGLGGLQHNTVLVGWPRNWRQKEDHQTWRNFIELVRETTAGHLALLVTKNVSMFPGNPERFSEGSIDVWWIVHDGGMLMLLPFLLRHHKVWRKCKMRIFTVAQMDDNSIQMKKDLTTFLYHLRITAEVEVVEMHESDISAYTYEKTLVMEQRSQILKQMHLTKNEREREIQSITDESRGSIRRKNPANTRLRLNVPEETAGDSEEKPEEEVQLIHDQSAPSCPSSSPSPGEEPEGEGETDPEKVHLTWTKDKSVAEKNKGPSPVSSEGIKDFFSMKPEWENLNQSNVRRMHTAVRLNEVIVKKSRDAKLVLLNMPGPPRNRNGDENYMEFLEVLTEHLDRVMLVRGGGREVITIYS
Experiment: Biotinylation, plasma membrane level of KCC2 in HEK-293 cells
Type: cell-based
Details: 15 min, surface/total KCC2
Description: Cell Culture and biotinylation. HEK-293 cells were purchased from ATCC (CRL-1573) and transfected with human KCC2 and GFP expression plasmids using Lipofectamine 2000. Cells were utilized for experimentation 48-72 h following transfection. Cells were biotinylated at 4° C. using NHS-Biotin. Following lysis and purification on immobilized avidin beads, cell surface and total fractions were subject to immunoblotting as outlined previously (Conway et al., 2017, supra).
The reliability of the biotinylation procedure was assessed via immunoblotting with antibodies against the cytosolic protein actin. Actin was present in the total lysates but was absent from the surface fractions (FIG. 2C).

SMILES: C[C@@H]1CN(c2nc3c(c(Nc4ccc(C5CCCCC5)cc4)n2)COC3)CCO1 [Compound A, (R)—N-(4-cyclohexylphenyl)-2-(2-methylmorpholino)-5,7-dihydrofuro[3,4-d]pyrimidin-4-amine]
- level of KCC2 on the plasma membrane (0.3 μM): 94.5±8.4 % of control
- level of KCC2 on the plasma membrane (3 μM): 104.7±8.4 % of control
